Assay results: ChEMBL document CHEMBL4145614, “Cyclopeptides from the Sponge Stylissa flabelliformis” (J Nat Prod, 2018)
Where a SMILES comes first, the peptide text is derived from it.

Key:
Trichophyton rubrum = test: Antifungal activity against Trichophyton rubrum IFO 9185 measured after 48 to 72 hrs; format: functional
K562 = test: Cytotoxicity against human K562 cells after 72 hrs by sulforhodamine B assay; format: functional, cell-based; settings: Homo sapiens, K562, 72 h
Staphylococcus aureus = test: Antibacterial activity against Staphylococcus aureus ATCC 6538P measured after 24 hrs; format: functional
Escherichia coli = test: Antibacterial activity against Escherichia coli ATCC 25922 measured after 24 hrs; format: functional; settings: ATCC 25922, 24 h
MDA-MB-231 = test: Cytotoxicity against human MDA-MB-231 cells after 72 hrs by sulforhodamine B assay; format: functional, cell-based; settings: Homo sapiens, MDA-MB-231, 72 h
Bacillus spizizenii = test: Antibacterial activity against Bacillus subtilis ATCC 6633 measured after 24 hrs; format: functional; settings: ATCC 6633, 24 h
HCT-116 = test: Cytotoxicity against human HCT116 cells after 72 hrs by sulforhodamine B assay; format: functional, cell-based; settings: Homo sapiens, HCT-116, 72 h
[1] = Inhibition of recombinant bacterial sortase A using Dabcyl-QALPETGEE-Edans as substrate measured after 1 hr by fluorescence assay; set-up: species or system Bacteria
SNU-638 = test: Cytotoxicity against human SNU638 cells after 72 hrs by sulforhodamine B assay; format: functional, cell-based; settings: Homo sapiens, SNU-638, 72 h
Candida albicans = test: Antifungal activity against Candida albicans ATCC 10231 measured after 48 to 72 hrs; format: functional
Aspergillus fumigatus = test: Antifungal activity against Aspergillus fumigatus HIC 6094 measured after 48 to 72 hrs; format: functional
[2] = biological target: Sodium/potassium-transporting ATPase; test: Inhibition of potassium-activated sodium/potassium ATPase in human placenta using 3-O-methylfluorescein phosphate as substrate measured for 90 secs by fluorescence assay
[3] = tested on: Trichophyton mentagrophytes; test: Antifungal activity against Trichophyton mentagrophytes IFO 40996 measured after 48 to 72 hrs; format: functional
Proteus vulgaris = test: Antibacterial activity against Proteus vulgaris ATCC 3851 measured after 24 hrs; format: functional; settings: ATCC 3851, 24 h
Salmonella typhimurium = test: Antibacterial activity against Salmonella typhimurium ATCC 14028 measured after 24 hrs; format: functional, Salmonella enterica subsp. enterica serovar Typhimurium; settings: Salmonella enterica, ATCC 14028, 24 h
Micrococcus luteus = test: Antibacterial activity against Micrococcus luteus IFC 12708 measured after 24 hrs; format: functional; settings: IFC 12708, 24 h
SK-HEP1 = test: Cytotoxicity against human SKHEP1 cells after 72 hrs by sulforhodamine B assay; format: functional, cell-based; settings: Homo sapiens, SK-HEP1, 72 h
A549 = test: cells; settings: Homo sapiens, A549, 72 h
Description: Cytotoxicity against human A549 cells after 72 hrs by sulforhodamine B assay

Structure (SMILES) | MIC (Trichophyton rubrum) [µM] | IC50 (K562) [µM] | MIC (Staphylococcus aureus) [µM] | MIC (Escherichia coli) [µM] | IC50 (MDA-MB-231) [µM] | MIC (Bacillus spizizenii) [µM] | IC50 (HCT-116) [µM] | IC50 [1] [µM] | IC50 (SNU-638) [µM] | MIC (Candida albicans) [µM] | MIC (Aspergillus fumigatus) [µM] | IC50 [2] [µM] | MIC [3] [µM] | MIC (Proteus vulgaris) [µM] | MIC (Salmonella typhimurium) [µM] | MIC (Micrococcus luteus) [µM] | IC50 (SK-HEP1) [µM] | IC50 (A549) [µM]
CC[C@H](C)[C@@H]1NC(=O)[C@H](Cc2ccccc2)NC(=O)[C@@H]2CCCN2C(=O)[C@@H]([C@H](C)O)NC(=O)[C@@H]2CCCN2C(=O)[C@H](CO)NC(=O)[C@H](C)NC1=O | > 128 | 30 | > 128 | > 128 | 10 | > 128 | 4.5 | > 100 | 24 | > 128 | > 128 | > 100 | > 128 | > 128 | > 128 | > 128 | 7.2 | 7.4
CC[C@H](C)[C@@H]1NC(=O)[C@H](C)NC(=O)[C@H](CC[S+](C)[O-])NC(=O)[C@H](C)NC(=O)[C@H](CC(N)=O)NC(=O)[C@H](Cc2ccccc2)NC(=O)[C@@H]2CCCN2C1=O (some centres undefined) (HELM PEPTIDE1{A.I.P.F.N.A.[CS(=O)CC[C@H](N[*:1])C(=O)[*:2]]}$PEPTIDE1,PEPTIDE1,1:R1-7:R2$$$V2.0) | > 128 | 11 | > 128 | > 128 | 12 | > 128 | 12 | > 100 | 12 | > 128 | > 128 | > 100 | > 128 | > 128 | > 128 | > 128 | 13 | 15
CC[C@H](C)[C@@H]1NC(=O)[C@H](C)NC(=O)[C@H](CC(C)C)NC(=O)[C@@H]2CCCN2C(=O)[C@H](CC(=O)O)NC(=O)[C@H](Cc2ccc(O)cc2)NC(=O)[C@@H]2CCCN2C1=O (HELM PEPTIDE1{A.I.P.Y.D.P.L}$PEPTIDE1,PEPTIDE1,1:R1-7:R2$$$V2.0) | > 128 | > 50 | > 128 | > 128 | > 50 | > 128 | > 50 | > 100 | > 50 | > 128 | > 128 | > 100 | > 128 | > 128 | > 128 | > 128 | > 50 | > 50
CC[C@H](C)[C@@H]1NC(=O)[C@H](Cc2ccccc2)NC(=O)[C@@H]2CCCN2C(=O)[C@H](Cc2ccc(O)cc2)NC(=O)[C@H](CCC(=O)O)NC(=O)[C@@H]2CCCN2C(=O)[C@@H]2CCCN2C1=O (HELM PEPTIDE1{E.Y.P.F.I.P.P}$PEPTIDE1,PEPTIDE1,1:R1-7:R2$$$V2.0) | > 128 | 3.9 | > 128 | > 128 | 17 | > 128 | 6.2 | > 100 | 11 | > 128 | > 128 | > 100 | > 128 | > 128 | > 128 | > 128 | 11 | 19
CC[C@H](C)[C@@H]1NC(=O)[C@@H]2CCCN2C(=O)[C@H](Cc2ccc(O)cc2)NC(=O)[C@@H]2CCCN2C(=O)[C@H]([C@@H](C)CC)NC(=O)[C@@H]2CCCN2C(=O)[C@H](Cc2ccccc2)NC1=O (HELM PEPTIDE1{F.P.I.P.Y.P.I}$PEPTIDE1,PEPTIDE1,1:R1-7:R2$$$V2.0) | > 128 | 33 | > 128 | > 128 | 9.1 | > 128 | 3.9 | > 100 | 37 | > 128 | > 128 | > 100 | > 128 | > 128 | > 128 | > 128 | 7.7 | 6.7
CC[C@H](C)[C@@H]1NC(=O)[C@@H]2CCCN2C(=O)[C@@H]2CCCN2C(=O)[C@H]([C@@H](C)CC)NC(=O)[C@H](Cc2ccc(O)cc2)NC(=O)[C@@H]2CCCN2C(=O)[C@@H]2CCCN2C(=O)[C@H](CC(C)C)NC(=O)[C@H](C(C)C)NC(=O)[C@H](Cc2ccccc2)NC1=O (HELM PEPTIDE1{F.V.L.P.P.Y.I.P.P.I}$PEPTIDE1,PEPTIDE1,1:R1-10:R2$$$V2.0) | > 128 | 0.29 | > 128 | > 128 | 2.5 | > 128 | 0.1 | > 100 | 1.7 | > 128 | > 128 | > 100 | > 128 | > 128 | > 128 | > 128 | 2.3 | 0.54
CC[C@H](C)[C@@H]1NC(=O)[C@@H]2CCCN2C(=O)[C@@H]2CCCN2C(=O)[C@H](C(C)C)NC(=O)[C@H](Cc2ccc(O)cc2)NC(=O)[C@@H]2CCCN2C(=O)[C@@H]2CCCN2C(=O)[C@H](CC(C)C)NC(=O)[C@H](C(C)C)NC(=O)[C@H](Cc2ccccc2)NC1=O (HELM PEPTIDE1{F.V.L.P.P.Y.V.P.P.I}$PEPTIDE1,PEPTIDE1,1:R1-10:R2$$$V2.0) | > 128 | 1.1 | > 128 | > 128 | 8.6 | > 128 | 1 | > 100 | 2.2 | > 128 | > 128 | > 100 | > 128 | > 128 | > 128 | > 128 | 12 | 1.4
CC(C)C[C@@H]1NC(=O)[C@H](CO)NC(=O)[C@@H]2CCCN2C(=O)[C@H](Cc2ccc(O)cc2)NC(=O)[C@H](Cc2ccc(O)cc2)NC(=O)[C@@H]2CCCN2C(=O)[C@H](Cc2ccc(O)cc2)NC1=O (HELM PEPTIDE1{L.Y.P.Y.Y.P.S}$PEPTIDE1,PEPTIDE1,1:R1-7:R2$$$V2.0) | > 128 | > 50 | > 128 | > 128 | > 50 | > 128 | > 50 | > 100 | > 50 | > 128 | > 128 | > 100 | > 128 | > 128 | > 128 | > 128 | > 50 | > 50
C[C@@H]1NC(=O)[C@H]([C@@H](C)O)NC(=O)[C@H](Cc2ccc(O)cc2)NC(=O)[C@@H]2CCCN2C(=O)[C@H](Cc2ccc(O)cc2)NC(=O)[C@H](CCCNC(=N)N)NC(=O)[C@@H]2CCCN2C(=O)[C@H](CC(N)=O)NC1=O [CYCLONELLIN] (HELM PEPTIDE1{A.N.P.R.Y.P.Y.T}$PEPTIDE1,PEPTIDE1,1:R1-8:R2$$$V2.0) | > 128 | > 50 | > 128 | > 128 | > 50 | > 128 | > 50 | > 100 | > 50 | > 128 | > 128 | > 100 | > 128 | > 128 | > 128 | > 128 | > 50 | > 50
COc1cc([C@@H]2c3cc4c(cc3[C@@H](O[C@@H]3O[C@@H]5CO[C@@H](C)O[C@H]5[C@H](O)[C@H]3O)[C@H]3COC(=O)[C@H]23)OCO4)cc(OC)c1O [ETOPOSIDE] |  | 1.3 |  |  | 4.4 |  | 0.68 |  | 0.43 |  |  |  |  |  |  |  | 0.93 | 0.72
CC[C@H](C)[C@@H]1NC(=O)[C@H](Cc2ccccc2)NC(=O)[C@@H]2CCCN2C(=O)[C@H](Cc2ccccc2)NC(=O)[C@@H]2CCCN2C(=O)[C@H](CCC(N)=O)NC(=O)[C@@H]2CCCN2C(=O)[C@H](Cc2ccccc2)NC1=O [PHAKELLI STATIN 11] (HELM PEPTIDE1{F.I.F.P.Q.P.F.P}$PEPTIDE1,PEPTIDE1,1:R1-8:R2$$$V2.0) | > 128 | 5.6 | > 128 | > 128 | 3.2 | > 128 | 1.6 | > 100 | 6.9 | > 128 | > 128 | > 100 | > 128 | > 128 | > 128 | > 128 | 1.7 | 2.8
CC[C@H](C)[C@@H]1NC(=O)[C@@H]2CCCN2C(=O)[C@H](Cc2ccccc2)NC(=O)[C@@H]2CCCN2C(=O)[C@H](Cc2ccc(O)cc2)NC(=O)[C@@H]2CCCN2C(=O)[C@H]([C@@H](C)CC)NC1=O [PHAKELLISTATIN 2] (HELM PEPTIDE1{F.P.I.I.P.Y.P}$PEPTIDE1,PEPTIDE1,1:R1-7:R2$$$V2.0) | > 128 | 3.2 | > 128 | > 128 | 1.3 | > 128 | 0.71 | > 100 | 1.6 | > 128 | > 128 | > 100 | > 128 | > 128 | > 128 | > 128 | 0.77 | 0.66
